Data: patent US9974778B2, “Substituted pyridinones as MGAT2 inhibitors” (BRISTOL-MYERS SQUIBB COMPANY, priority 2014, dated 2018)

biological target: T1, Human MGAT-2 (Homo sapiens, UniProt Q3SYC2); test: MGAT LCMS Assay; type: biochemical; settings: human MGAT2 membranes expressed in Sf9 cells; 100 μM 2-oleoylglycerol, 15 μM oleoyl-coenzyme A; read-out: h-MGAT LCMS IC50
T1 construct: made in house; host or cells: Sf9 cells (membrane preparation)
Protocol: Assay plates were run through a fully automated robotics system and shaken for 5 seconds every minute for a total 10 minutes. The reactions were then quenched with 120 μL of ice cold methanol containing 1 μg/mL 1,2-distearoyl-rac-glycerol as the internal standard. Plates were shaken for 2 minutes and spun down to remove protein precipitation. After the spin, samples were transferred to LC/MS compatible PCR plates. For LC/MS analysis, a ThermoFisher Surveyor pump, utilizing a Waters […]® C8, 50×2.1 mm column, was used for the chromatography of enzyme products. The buffer system consists of 0.1% formic acid in water with a mobile phase consisting 0.1% formic acid in methanol. […] The first 0.5 minutes of each injection was diverted to waste to eliminate the presence of Phosphate buffer in the enzymatic reaction. The column was run at 0.6 mL/min and a temperature of 65° C. Mass spectrometry analysis of the samples was performed on a ThermoFisher Quantum Triple quad utilizing APCI (+) as the mode of ionization. […] The ratio of Diolein to internal standard (Peak Area Ratio) is utilized to calculate IC50 values.

T1 sequence (Q3SYC2 whole entry): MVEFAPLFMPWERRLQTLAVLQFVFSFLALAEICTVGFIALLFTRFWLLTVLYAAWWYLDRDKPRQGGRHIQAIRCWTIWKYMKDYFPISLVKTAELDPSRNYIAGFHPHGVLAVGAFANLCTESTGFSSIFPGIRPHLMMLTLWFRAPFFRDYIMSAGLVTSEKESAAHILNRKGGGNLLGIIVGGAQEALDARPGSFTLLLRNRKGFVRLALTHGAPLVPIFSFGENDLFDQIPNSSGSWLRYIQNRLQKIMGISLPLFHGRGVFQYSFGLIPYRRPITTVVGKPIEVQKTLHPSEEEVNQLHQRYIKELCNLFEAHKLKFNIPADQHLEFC

Compound | IC50 [nM]
5-Chloro-6-cyclohexyl-N-(4-methoxyphenyl)-2-oxo-4-(p- tolyl)-1,2-dihydropyridine-3-carboxamide [Example 35] | 288
COc1ccc(NC(=O)c2c(-c3ccc(C)cc3)cc(-c3ccc(OCCCC(F)(F)F)cc3)[nH]c2=O)cc1 [Example 2, N-(4-Methoxyphenyl)-2-oxo-4-(p-tolyl)-6-(4-(4,4,4-trifluorobutoxy)phenyl)-1,2-dihydropyridine-3-carboxamide] | 30
COc1ccc(NC(=O)c2c(-c3ccc(C)cc3)c(F)c(-c3ccc(OCCCC(F)(F)F)cc3)[nH]c2=O)cc1 [Example 3, 5-Fluoro-N-(4-methoxyphenyl)-2-oxo-4-(p-tolyl)-6-(4-(4,4,4-trifluorobutoxy)phenyl)-1,2-dihydropyridine-3-carboxamide] | 19
COc1ccc(NC(=O)c2c(-c3ccc(C)cc3)cc(-c3nc(-c4ccccc4)oc3C)[nH]c2=O)cc1 [Example 4, N-(4-Methoxyphenyl)-6-(5-methyl-2-phenyloxazol-4-yl)-2-oxo-4-(p-tolyl)-1,2-dihydropyridine-3-carboxamide] | 5
CCOc1ccc(NC(=O)c2c(-c3ccc(C)cc3)cc(-c3ccc(OCCCC(F)(F)F)cc3)[nH]c2=O)cc1 [Example 5, N-(4-Ethoxyphenyl)-2-oxo-4-(p-tolyl)-6-(4-(4,4,4-trifluorobutoxy)phenyl)-1,2-dihydropyridine-3-carboxamide] | 21
Cc1ccc(-c2c(Br)c(-c3ccc(OCCCC(F)(F)F)cc3)[nH]c(=O)c2-c2nnn[nH]2)cc1 [Example 6, 5-Bromo-3-(1H-tetrazol-5-yl)-4-(p-tolyl)-6-(4-(4,4,4-trifluorobutoxy)phenyl)pyridin-2(1H)-one] | 79
Cc1ccc(-c2c(C)c(-c3ccc(OCCCC(F)(F)F)cc3)[nH]c(=O)c2-c2nnn[nH]2)cc1 [Example 7, 5-Methyl-3-(1H-tetrazol-5-yl)-4-(p-tolyl)-6-(4-(4,4,4-trifluorobutoxy)phenyl)pyridin-2(1H)-one] | 9
CCOc1ccc(NC(=O)c2c(-c3cnc(N(C)C)s3)cc(C3CCCCC3)[nH]c2=O)cc1 [Example 8, 6-Cyclohexyl-4-(2-(dimethylamino)thiazol-5-yl)-N-(4-ethoxyphenyl)-2-oxo-1,2-dihydropyridine-3-carboxamide] | 50
CCOc1ccc(NC(=O)c2c(-c3cnc(N(C)C)s3)cc(C3(O)CCCCC3)[nH]c2=O)cc1 [Example 9, 4-(2-(Dimethylamino)thiazol-5-yl)-N-(4-ethoxyphenyl)-6-(1-hydroxycyclohexyl)-2-oxo-1,2-dihydropyridine-3-carboxamide] | 293
CCOc1ccc(NC(=O)c2c(-c3cnc(N(C)C)s3)cc(C3(F)CCCCC3)[nH]c2=O)cc1 [Example 10, 4-(2-(Dimethylamino)thiazol-5-yl)-N-(4-ethoxyphenyl)-6-(1-fluorocyclohexyl)-2-oxo-1,2-dihydropyridine-3-carboxamide] | 17
CC(C)(C)c1ccc(-c2cc(-c3ccc(OCCCC(F)(F)F)cc3)[nH]c(=O)c2C(=O)O)cc1 [Example 11, 4-(4-(tert-Butyl)phenyl)-2-oxo-6-(4-(4,4,4-trifluorobutoxy)phenyl)-1,2-dihydropyridine-3-carboxylic acid] | 461
CC(C)(C)c1ccc(-c2cc(-c3ccc(OCCCC(F)(F)F)cc3)[nH]c(=O)c2C(=O)NS(=O)(=O)C2CC2)cc1 [Example 12, 4-(4-(tert-Butyl)phenyl)-N-(cyclopropylsulfonyl)-2-oxo-6-(4-(4,4,4-trifluorobutoxy)phenyl)-1,2-dihydropyridine-3-carboxamide] | 56
CCCCCc1ccc(-c2cc(-c3ccc(C)cc3)c(NC(=O)c3ccccc3)c(=O)[nH]2)cc1 [Example 14, N-(2-Oxo-6-(4-pentylphenyl)-4-(p-tolyl)-1,2-dihydropyridin-3-yl)benzamide] | 100
CCOc1ccc(NC(=O)c2c(-c3ccc(C)cc3)c(I)c(C3CCCCC3)[nH]c2=O)cc1 [Example 15, 6-Cyclohexyl-N-(4-ethoxyphenyl)-5-iodo-2-oxo-4-(p-tolyl)-1,2-dihydropyridine-3-carboxamide] | 5
Cc1ccc(-c2c(F)c(-c3ccc(OCCCC(F)(F)F)cc3)[nH]c(=O)c2-c2nnn[nH]2)cc1 [Example 17, 5-Fluoro-3-(1H-tetrazol-5-yl)-4-(p-tolyl)-6-(4-(4,4,4-trifluorobutoxy)phenyl)pyridin-2(1H)-one] | 298
Cc1ccc(-c2c(Cl)c(-c3ccc(OCCCC(F)(F)F)cc3)[nH]c(=O)c2-c2nnn[nH]2)cc1 [Example 19, 5-Chloro-3-(1H-tetrazol-5-yl)-4-(p-tolyl)-6-(4-(4,4,4-trifluorobutoxy)phenyl)pyridin-2(1H)-one] | 100

Compound | IC50 [nM]
CCc1ccc(-c2cc(-c3ccc(OCCCC(F)(F)F)cc3F)[nH]c(=O)c2-c2nn[nH]n2)s1 [Example 20, 4-(5-Ethylthiophen-2-yl)-6-(2-fluoro-4-(4,4,4-trifluorobutoxy)phenyl)-3-(2H-tetrazol-5-yl)pyridin-2(1H)-one] | 5
CCc1ccc(-c2cc(-c3ccc(OCCCC(F)(F)F)cc3)[nH]c(=O)c2C(=O)NS(C)(=O)=O)s1 [Example 21, 4-(5-Ethylthiophen-2-yl)-N-(methylsulfonyl)-2-oxo-6-(4-(4,4,4-trifluorobutoxy)phenyl)-1,2-dihydropyridine-3-carboxamide] | 21
CCc1ccc(-c2cc(-c3ccc(OCCCC(F)(F)F)cc3Cl)[nH]c(=O)c2-n2nn[nH]c2=O)s1 [Example 22, 6-(2-Chloro-4-(4,4,4-trifluorobutoxy)phenyl)-4-(5-ethylthiophen-2-yl)-3-(5-oxo-4,5-dihydro-1H-tetrazol-1-yl)pyridin-2(1H)-one] | 252
CCCCCc1ccc(-c2cc(-c3ccc(C)cc3)c(C(=O)Nc3cccnc3)c(=O)[nH]2)cc1 [Example 23, 2-Oxo-6-(4-pentylphenyl)-N-(pyridin-3-yl)-4-(p-tolyl)-1,2-dihydropyridine-3-carboxamide] | 24
CCOc1ccc(NC(=O)c2c(-c3ccc(C)cc3)c(C)c(-c3ccc(OCCCC(F)(F)F)cc3)[nH]c2=O)cc1 [Example 24, N-(4-Ethoxyphenyl)-5-methyl-2-oxo-4-(p-tolyl)-6-(4-(4,4,4-trifluorobutoxy)phenyl)-1,2-dihydropyridine-3-carboxamide] | 39
CCOc1ccc(NC(=O)c2c(-c3ccc(C)cc3)c(C)c(C3CCCCC3)[nH]c2=O)cc1 [Example 25, 6-Cyclohexyl-N-(4-ethoxyphenyl)-5-methyl-2-oxo-4-(p-tolyl)-1,2-dihydropyridine-3-carboxamide] | 72
C=Cc1c(-c2ccc(CCCCC)cc2)[nH]c(=O)c(C(=O)Nc2ccc(OCC)cc2)c1-c1ccc(C)cc1 [Example 26, N-(4-Ethoxyphenyl)-2-oxo-6-(4-pentylphenyl)-4-(p-tolyl)-5-vinyl-1,2-dihydropyridine-3-carboxamide] | 82
CCCCCc1ccc(-c2cc(-c3ccc(C)cc3)c(C(=O)Nc3ccc(OCC)cc3)c(=O)[nH]2)cc1 [Example 27, N-(4-Ethoxyphenyl)-2-oxo-6-(4-pentylphenyl)-4-(p-tolyl)-1,2-dihydropyridine-3-carboxamide] | 86
CCOc1ccc(NC(=O)c2c(-c3ccc(C)cc3)cc(C3CCCCC3)[nH]c2=O)cc1 [Example 28, 6-Cyclohexyl-N-(4-ethoxyphenyl)-2-oxo-4-(p-tolyl)-1,2-dihydropyridine-3-carboxamide] | 137
CCOc1ccc(NC(=O)c2c(-c3ccc(C)cc3)cc(C3CCCC3)[nH]c2=O)cc1 [Example 29, 6-Cyclopentyl-N-(4-ethoxyphenyl)-2-oxo-4-(p-tolyl)-1,2-dihydropyridine-3-carboxamide] | 144
CCCCCc1ccc(-c2cc(-c3ccc(C)cc3)c(-c3nn[nH]n3)c(=O)[nH]2)cc1 [Example 30, 6-(4-Pentylphenyl)-3-(2H-tetrazol-5-yl)-4-(p-tolyl)pyridin-2(1H)-one] | 150
CC/C=C/c1c(-c2ccc(CCCCC)cc2)[nH]c(=O)c(C(=O)Nc2ccc(OCC)cc2)c1-c1ccc(C)cc1 [Example 31, (E)-5-(But-1-en-1-yl)-N-(4-ethoxyphenyl)-2-oxo-6-(4-pentylphenyl)-4-(p-tolyl)-1,2-dihydropyridine-3-carboxamide] | 178
CCCCCc1ccc(-c2[nH]c(=O)c(C(=O)Nc3ccc(OCC)cc3)c(-c3ccc(C)cc3)c2-c2ccccc2)cc1 [Example 32, N-(4-Ethoxyphenyl)-2-oxo-6-(4-pentylphenyl)-5-phenyl-4-(p-tolyl)-1,2-dihydropyridine-3-carboxamide] | 193
CCCCCc1ccc(-c2cc(-c3ccc(C)cc3)c(C(=O)Nc3ccccc3)c(=O)[nH]2)cc1 [Example 33, 2-Oxo-6-(4-pentylphenyl)-N-phenyl-4-(p-tolyl)-1,2-dihydropyridine-3-carboxamide] | 218
COc1ccc(NC(=O)c2c(-c3ccc(C)cc3)cc(C3CCCCC3)[nH]c2=O)cc1 [Example 34, 6-Cyclohexyl-N-(4-methoxyphenyl)-2-oxo-4-(p-tolyl)-1,2-dihydropyridine-3-carboxamide] | 223
Cc1ccc(-c2c(Br)c(-c3ccc(OCCCC(F)(F)F)cc3)[nH]c(=O)c2-c2nn[nH]n2)cc1C [Example 36, 5-Bromo-4-(3,4-dimethylphenyl)-3-(2H-tetrazol-5-yl)-6-(4-(4,4,4-trifluorobutoxy)phenyl)pyridin-2(1H)-one] | 311
